Assay results as given in US20160220557A1, “USE OF ACETYL-COA CARBOXYLASE INHIBITORS FOR TREATING ACNE VULGARIS” (PFIZER INC., priority 2013, published 2016).

Experiments:
CYP2C19 = biological target: T1, CYP2C19 (Homo sapiens, UniProt P33261); experiment: P450 inhibition in liver microsomes with probe substrates; format: in vitro ADME
T1 construct: from tissue; host or cells: liver microsomes

ear skin malonyl-CoA = experiment: Ear skin malonyl-CoA levels in Syrian hamsters; format: in vivo, Syrian hamster; settings: topical 100 mg/ml (5 ul/ear), single dose, one hour after treatment
Description: Male Syrian gold Hamster at ˜10 weeks were maintained adlibitum on standard hamster chow and water. Example 3 for topical delivery was prepared as a solution in a vehicle consisting of 70:30 (Ethanol:propylene glycol) at a concentration of 100 mg/ml. Topical administration of a single dose (5 ul/ear) was applied to hamster ears with a pipette (2-10 ul) tip adhering to 2 minute intervals following the dosing order. The dosing timing allowed for the formulation to spread evenly over an approximate 1 sq cm area and absorb/dry prior to returning the animal to the cage. […] One hour after dose administration animals were sacrificed by CO2 asphyxiation.
Briefly, ear skin samples were prepared for malonyl-CoA analysis in the following manner. One 8 mm distal biopsy punch (using a 8 mm diameter Sklar Tru-punch—Sklar Instruments) (2 per animal) was taken just above the anatomical “V” in the aural cartilage to normalize sample area. The punch was then split into 2 layers (anterior and posterior). […]
Frozen tissues were homogenized in 1 mL of 5% ice cold trichloroacetic acid using a polytron in a 2 mL polypropylene centrifuge tube. […] Tissue malonyl-CoA levels were determined by LCMS by the Metabolomics Laboratory Sanford-Burnham Medical Research Institute (Orlando, […]). Hamster ear skin malonyl-CoA levels were expressed as the percent of the vehicle control and are plotted in FIG. 6.

[1] = test system: de novo lipogenesis in ear skin and liver; experiment: Effect of oral and topical ACCi on DNL (14C-acetate incorporation) in Syrian hamsters; format: in vivo, Syrian hamster; settings: topical 100 mg/ml single dose, vs. vehicle
Description: Male Syrian gold Hamster at ˜10 weeks were maintained adlibitum on standard hamster chow and water. […] Example 3 for topical delivery was prepared as a solution in a vehicle consisting of 70:30 (Ethanol:propylene glycol) at a concentration of 100 mg/ml. Topical administration of a single dose (5 ul/ear) was applied to hamster ears with a pipette (2-10 ul) tip adhering to 2 minute intervals following the dosing order. The dosing timing allowed for the formulation to spread evenly over an approximate 1 sq cm area and absorb/dry prior to returning the animal to the cage. 1 hour post ACCi dose each animal received an IP injection of ^14C-labeled acetate (ARC0158B diluted in saline) following the 2 minute interval timing format. Each animal received an individually calculated amount of ^14C-acetate based on body weight (0.1 μCi/g in a dosing volume of 2 μl/g). One hour after the ^14C-Acetate injection animals were sacrificed by CO2 asphyxiation.
Liver and ear skin were collected for de novo lipogenesis determinations (^14C incorporation to lipid). Briefly, 2 liver punches totaling ˜400 mg of liver were collected from the bifurcated median lobe of each animal (using a 8 mm diameter Sklar Tru-punch—Sklar Instruments), rinsed with saline and blotted dry. The tissues were placed into pre-weighed in glass tubes (Pyrex 9826-16×125 mm with PTFE lined caps) containing NaOH (1.5 mL of 2.5 M).
Ear skin samples were prepared for analysis in the following manner. One 8 mm distal biopsy punch (using an 8 mm diameter Sklar Tru-punch—Sklar Instruments) (2 per animal) was taken just above the anatomical “V” in the aural cartilage to standardize sample collection area. The punch was then split into 2 layers (anterior and posterior). The anterior (front) surface is retained for analysis. The anterior skin was placed into pre-weighed in glass tubes (Pyrex 9826-16×125 mm with PTFE lined caps) containing NaOH (1.5 mL of 2.5 M).
Upon completion of the study, the liver and ear skin samples in NaOH were weighed and this weight was used to calculate the mass of the tissue collected. The capped tubes were heated in an dry oven (˜60° C.) until the tissue was fully degraded (˜4-6 hr, gentle vortexing 2-3 times during heating). Following degradation and cooling absolute ethanol (2.5 mL) was added to each sample. The tubes were recapped and vigorously mixed (vortexed) for 60 seconds and allowed to settle overnight at RT. Petroleum ether (4.8 mL) was added to each tube, recapped and the samples were vigorous mixed (60 sec). […] Aquasol-2 scintillation fluid (10 mL) (or other compatible scintillation fluid) was added to each vial and after vortexing the samples were counted in an appropriate scintillation counter (e g. Wallac Rack-Beta 1409 LSC). […]

T1 sequence (P33261 whole entry): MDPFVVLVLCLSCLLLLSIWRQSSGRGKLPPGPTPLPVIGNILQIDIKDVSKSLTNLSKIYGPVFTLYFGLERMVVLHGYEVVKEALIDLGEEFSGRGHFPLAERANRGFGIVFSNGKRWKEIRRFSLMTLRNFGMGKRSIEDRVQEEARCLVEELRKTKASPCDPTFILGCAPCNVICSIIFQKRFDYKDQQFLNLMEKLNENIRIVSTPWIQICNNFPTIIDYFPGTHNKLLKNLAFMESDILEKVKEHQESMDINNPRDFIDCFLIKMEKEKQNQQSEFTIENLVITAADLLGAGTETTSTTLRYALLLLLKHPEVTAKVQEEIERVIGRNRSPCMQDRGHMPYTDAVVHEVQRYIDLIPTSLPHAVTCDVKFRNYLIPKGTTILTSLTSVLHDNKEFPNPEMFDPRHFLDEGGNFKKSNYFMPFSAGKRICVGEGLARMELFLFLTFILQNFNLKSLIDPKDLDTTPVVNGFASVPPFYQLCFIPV

| Compound | IC50 (CYP2C19) [µM] | suppression of hamster ear skin malonyl-CoA relative to vehicle (ear skin malonyl-CoA) [%] | incorporation of de novo synthesized fatty acids in liver [1] | incorporation of de novo synthesized fatty acids in skin [1] |
| --- | --- | --- | --- | --- |
| Cc1nc2ccc(C(=O)N3CCC4(CC3)CC(=O)c3c(cnn3C(C)C)C4)cc2[nH]1 [Example 1, 1-isopropyl-1′-(2-methyl-1H-benzo[d]imidazole-5-carbonyl)-4,6-dihydrospiro[indazole-5,4′-piperidin]-7(1H)-one] | > 30 | – | – | – |
| CC(C)n1ncc2c1C(=O)CC1(CCN(C(=O)c3ccc4ccc(N)nc4c3)CC1)C2 [Example 3, 1′-(2-aminoquinoline-7-carbonyl)-1-isopropyl-4,6-dihydrospiro[indazole-5,4′-piperidin]-7(1H)-one] | – | 87 | failed to inhibit | failed to inhibit |
